Source: patent publication US20090069320A1, “Substituted 4-Amino-Quinazoline Compounds with Metabotropic Glutamate Receptor Regulating Activity and Uses Thereof” (Gruenenthal GmbH, priority 2006, published 2009)

These compounds were tested against T1, mGluR5 receptor (Sus scrofa, UniProt I3LUI7) (assay: [3H]-MPEP mGluR5 receptor binding assay (pig brain homogenate)). Conditions: 5 nM [3H]-MPEP, read-out: IC50 mGluR5 Receptor (pig) [^3H]-MPEP Bond.
T1 construct: 450 μg of protein from brain homogenate with 5 nM ^3[H]-MPEP; from tissue; host or cells: pig brain halves without medulla, cerebellum and pons
Description: I. Method for Determining the Inhibition of the [^3H]-MPEP Bond in the mGluR5 Receptor Binding Assay
Pig brain homogenate is produced by homogenizing (Polytron PT 3000, Kinematica AG, 10 000 rpm for 90 seconds) pig brain halves without medulla, cerebellum and pons in pH 8.0 buffer (20 mM Hepes, Sigma, order no. H3375+1 complete tablet, 100 ml, Roche Diagnostics, order no. 1836145) in the ratio of 1:20 (brain weight/volume) and differential centrifuging at 900×g and 40 000×g. In incubation batches of 250 μl in 96-well microtitre plates 450 μg of protein from brain homogenate with 5 nM ^3[H]-MPEP (Tocris, order no. R1212) (MPEP=[…]) and the compounds to be examined (10 μM in test) in buffer (as above) are respectively incubated at room temperature for 60 minutes.
The batches are then filtered using a Brandel cell harvester (Brandel, Robotic 9600) on unifilter plates with fibreglass filter mats (Perkin Elmer, order no. 6005177) and then washed with buffer (as above) 3-times each with 250 μl per sample. The filter plates are then dried for 60 mins. at 55° C. Then, 30 μL of Ultima Gold™ scintillator (Packard BioScience, order no. 6013159) are added per well and after 3 hours the samples are measured on the β-counter (MicroBeta, Perkin Elmer). The non-specific binding is determined by adding 10 μM of MPEP (Tocris, order no. 1212).

T1 sequence (I3LUI7 19-1212): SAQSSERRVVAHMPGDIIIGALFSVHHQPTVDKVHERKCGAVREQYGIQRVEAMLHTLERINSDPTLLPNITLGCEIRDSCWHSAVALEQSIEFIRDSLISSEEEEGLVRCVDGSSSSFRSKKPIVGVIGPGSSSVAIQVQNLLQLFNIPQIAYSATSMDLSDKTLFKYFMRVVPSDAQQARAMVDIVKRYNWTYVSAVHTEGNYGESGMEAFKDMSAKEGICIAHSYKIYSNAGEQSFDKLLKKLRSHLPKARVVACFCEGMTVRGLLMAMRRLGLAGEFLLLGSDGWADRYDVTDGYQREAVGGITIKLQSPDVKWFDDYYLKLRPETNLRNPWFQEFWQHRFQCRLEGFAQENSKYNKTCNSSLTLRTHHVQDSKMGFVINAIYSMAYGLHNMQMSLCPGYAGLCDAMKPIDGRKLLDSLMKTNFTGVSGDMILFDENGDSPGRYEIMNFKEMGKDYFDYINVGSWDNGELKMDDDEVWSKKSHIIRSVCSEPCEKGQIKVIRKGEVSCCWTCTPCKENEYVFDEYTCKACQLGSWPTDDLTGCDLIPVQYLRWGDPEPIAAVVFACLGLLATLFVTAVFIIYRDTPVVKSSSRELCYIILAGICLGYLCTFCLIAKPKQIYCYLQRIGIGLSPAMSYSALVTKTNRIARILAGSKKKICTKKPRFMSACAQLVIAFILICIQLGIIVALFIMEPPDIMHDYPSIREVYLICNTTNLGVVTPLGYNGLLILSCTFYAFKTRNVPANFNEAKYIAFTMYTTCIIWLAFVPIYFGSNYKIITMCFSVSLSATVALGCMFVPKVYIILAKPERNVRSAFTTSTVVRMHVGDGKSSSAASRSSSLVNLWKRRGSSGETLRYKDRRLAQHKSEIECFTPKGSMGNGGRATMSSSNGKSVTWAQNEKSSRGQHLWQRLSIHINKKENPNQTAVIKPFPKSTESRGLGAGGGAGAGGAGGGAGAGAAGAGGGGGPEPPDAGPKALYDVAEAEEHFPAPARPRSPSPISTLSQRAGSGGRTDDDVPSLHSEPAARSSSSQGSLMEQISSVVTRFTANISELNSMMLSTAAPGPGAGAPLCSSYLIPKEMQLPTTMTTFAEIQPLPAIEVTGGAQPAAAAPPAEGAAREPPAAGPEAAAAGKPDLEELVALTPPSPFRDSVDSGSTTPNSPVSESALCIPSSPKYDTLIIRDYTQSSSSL

Compound | IC50
O=C1CCCC(=O)N1Cc1cc(-c2ccc3ncnc(NC4CC4)c3c2)ccc1F [Example 278, 1-(5-(4-(cyclopropylamino)quinazolin-6-yl)-2-fluorobenzyl)piperidine-2,6-dione] | 350 nM
O=C(C=Cc1ccccc1)N(Cc1cccc(-c2ccc3ncnc(NC4CC4)c3c2)c1)C1CC1 [Example 255, N-cyclopropyl-N-[3-(4-cyclopropylamino-quinazolin-6-yl)-benzyl]-3-phenyl-acrylamide] | 1850 nM
O=C(CC(F)(F)F)N(Cc1cc(-c2ccc3ncnc(NC4CC4)c3c2)ccc1F)C1CC1 [Example 282, N-cyclopropyl-N-(5-(4-(cyclopropylamino)quinazolin-6-yl)-2-fluorobenzyl)-3,3,3-trifluoropropanamide] | 50 nM
CC(c1cccc(-c2ccc3ncnc(NC4CC4)c3c2)c1)N(C1CC1)S(C)(=O)=O (centres unmarked) [Example 231, N-cyclopropyl-N-(1-(3-(4-(cyclopropylamino)quinazolin-6-yl)phenyl)ethyl)methane sulfonamide] | 5720 nM
CCN(Cc1cccc(-c2ccc3ncnc(NC4CC4)c3c2)c1)C(C)=O [Example 894, N-(3-(4-(cyclopropylamino)quinazolin-6-yl)benzyl)-N-ethylacetamide] | 1000 nM
CC(=O)N(Cc1cccc(-c2ccc3ncnc(NC4CC4)c3c2)c1)C(C)=O [Example 879, N-acetyl-N-(3-(4-(cyclopropylamino)quinazolin-6-yl)benzyl)acetamide] | 1660 nM

Now from value to compound:

IC50 | Compound
2980 nM | CC(C)(C)Nc1ncnc2ccc(-c3ccc(F)c(CNC4CC4)c3)cc12 [Example 322, N-tert-butyl-6-(3-((cyclopropylamino)methyl)-4-fluorophenyl)quinazoline-4-amine]
160 nM | COc1cc2ncnc(NC3CC3)c2cc1-c1cccc(CN2C(=O)CCC2=O)c1 [Example 899, 1-(3-(4-(cyclopropylamino)-7-methoxyquinazolin-6-yl)benzyl)pyrrolidine-2,5-dione]
4120 nM | CC(=O)N(Cc1cc(C)cc(-c2ccc3ncnc(NC4CC4)c3c2)c1)C1CC1 [Example 239, N-cyclopropyl-N-[3-(4-cyclopropylamino-quinazolin-6-yl)-5-methyl-benzyl]-acetamide]
1500 nM | CC(=O)N(Cc1cccc(-c2ccc3ncnc(NC4CC4)c3c2)c1)Cc1ccco1 [Example 216, N-[3-(4-cyclopropylamino-quinazolin-6-yl)-benzyl]-N-furan-2-yl-methyl-acetamide]
570 nM | COC(=O)CC(=O)N(Cc1cccc(-c2ccc3ncnc(NC4CC4)c3c2)c1)C1CC1 [Example 237, N-cyclopropyl-N-[3-(4-cyclopropylamino-quinazolin-6-yl)-benzyl]-methyl malonate]
3210 nM | CC(=O)N(Cc1cccc(-c2ccc3ncnc(NC4CC4)c3c2)c1)C1CCC1 [Example 893, N-cyclobutyl-N-(3-(4-(cyclopropylamino)quinazolin-6-yl)benzyl)acetamide]

Same assay, conditions: 10 μM compound, 5 nM [3H]-MPEP

% Inhibition of mGluR5 Receptor (pig) [^3H]-MPEP Bond at 10 μM | Compound
68% | O=S(=O)(c1cccc(C(F)(F)F)c1)N(Cc1cccc(-c2cc(F)c3ncnc(NC4CC4)c3c2)c1)C1CC1 [Example 686, N-cyclopropyl-N-(3-(4-(cyclopropylamino)-8-fluoroquinazolin-6-yl)benzyl)-3-(trifluoromethyl)benzole sulfonamide]
95% | COc1ccc(S(=O)(=O)N(Cc2cc(-c3ccc4ncnc(NC5CC5)c4c3)ccc2Cl)C2CC2)cc1 [Example 786, N-(2-chloro-5-(4-(cyclopropylamino)quinazolin-6-yl)benzyl)-N-cyclopropyl-4-methoxybenzole sulfonamide]

Same assay, conditions: 10 μM compound, 5 nM [3H]-MPEP, read-out: % Inhibition of mGluR5 Receptor (pig) [^3H]-MPEP Bond at 10 μM

Compound | inhibition at 10 µM
CS(=O)(=O)N(Cc1cc(-c2ccc3ncnc(NC4CC4)c3c2)ccn1)C1CC1 [Example 853, N-cyclopropyl-N-((4-(4-(cyclopropylamino)quinazolin-6-yl)pyridin-2-yl)methyl)methane sulfonamide] | 67%
O=C(c1ccccn1)N(Cc1cc(-c2ccc3ncnc(NC4CC4)c3c2)ccc1Cl)C1CC1 [Example 755, N-(2-chloro-5-(4-(cyclopropylamino)quinazolin-6-yl)benzyl)-N-cyclopropylpicolinamide] | 78%
Cc1cc2ncnc(NC3CC3)c2cc1-c1cccc(CN(C(=O)c2ccc(C(F)(F)F)cc2F)C2CC2)c1 [Example 668, N-cyclopropyl-N-(3-(4-(cyclopropylamino)-7-methylquinazolin-6-yl)benzyl)-2-fluoro-4-(trifluoromethyl)benzamide] | 88%
Cc1cc2ncnc(NC3CC3)c2cc1-c1cccc(CN(C(=O)c2ccccc2C(F)(F)F)C2CC2)c1 [Example 684, N-cyclopropyl-N-(3-(4-(cyclopropylamino)-7-methylquinazolin-6-yl)benzyl)-2-(trifluoromethyl)benzamide] | 96%
CC(C)S(=O)(=O)N(Cc1cc(-c2ccc3ncnc(NC4CC4)c3c2)ccc1F)C1CC1 [Example 429, N-cyclopropyl-N-(5-(4-(cyclopropylamino)quinazolin-6-yl)-2-fluorobenzyl)propane-2-sulfonamide] | 92%
O=C(c1ccco1)N(Cc1cccc(-c2cc(F)c3ncnc(NC4CC4)c3c2)c1)C1CC1 [Example 677, N-cyclopropyl-N-(3-(4-(cyclopropylamino)-8-fluoroquinazolin-6-yl)benzyl)furan-2-carboxamide] | 93%

More lines, now with the values ahead:

inhibition at 10 µM | Compound
40% | CC(C)Nc1ncnc2ccc(-c3cccc(CN(Cc4ccccc4)C(=O)c4ccccc4Cl)c3)cc12 [Example 150, N-benzyl-2-chloro-N-[3-(4-isopropylamino-quinazolin-6-yl)-benzyl]-benzamide]
87% | O=C(c1ccc(C(F)(F)F)cc1F)N(Cc1cc(-c2ccc3ncnc(NC4CC4)c3c2)ccc1F)C1CC1 [Example 397, N-cyclopropyl-N-(5-(4-(cyclopropylamino)quinazolin-6-yl)-2-fluorobenzyl)-2-fluoro-4-(trifluoromethyl)benzamide]
89% | O=C(c1ccc(Cl)nc1)N(Cc1cccc(-c2ccc3ncnc(NC4CC4)c3c2)c1)C1CC1 [Example 179, 6-chloro-N-cyclopropyl-N-[3-(4-cyclopropylamino-quinazolin-6-yl)-benzyl]-nicotinamide]
43% | CCCN(Cc1cccc(-c2ccc3ncnc(Nc4ccccc4)c3c2)c1)C(=O)c1sccc1C [Example 110, 3-methyl-thiophene-2-carboxylic acid [3-(4-phenylamino-quinazolin-6-yl)-benzyl]-propyl-amide]
96% | N#Cc1ccc(C(=O)N(Cc2cccc(-c3ccc4ncnc(NC5CC5)c4c3)c2)C2CC2)cc1 [Example 161, 4-cyano-N-cyclopropyl-N-[3-(4-cyclopropylamino-quinazolin-6-yl)-benzyl]-benzamide]
32% | COCCN(Cc1cccc(-c2ccc3ncnc(NC4CC4)c3c2)c1)C(C)=O [Example 213, N-(3-(4-(cyclopropylamino)quinazolin-6-yl)benzyl)-N-(2-methoxyethyl)acetamide]
36% | CC(C)CN(Cc1cccc(-c2ccc3ncnc(N4CCOCC4)c3c2)c1)C(=O)c1cnccn1 [Example 13, pyrazine-2-carboxylic acid isobutyl-[3-(4-morpholin-4-yl-quinazolin-6-yl)-benzyl]-amide]
84% | O=C(c1ccccc1C(F)(F)F)N(Cc1cccc(-c2cc(F)c3ncnc(NC4CC4)c3c2)c1)C1CC1 [Example 789, N-cyclopropyl-N-(3-(4-(cyclopropylamino)-8-fluoroquinazolin-6-yl)benzyl)-2-(trifluoromethyl)benzamide]
93% | O=C(c1cccc(F)c1)N(Cc1cccc(-c2cc(F)c3ncnc(NC4CC4)c3c2)c1)C1CC1 [Example 727, N-cyclopropyl-N-(3-(4-(cyclopropylamino)-8-fluoroquinazolin-6-yl)benzyl)-3-fluorobenzamide]
35% | COc1ccc(CNc2ncnc3ccc(-c4cccc(CN(C(=O)c5cc(C)nn5C)C5CC5)c4)cc23)c(OC)c1 [Example 730, N-cyclopropyl-N-(3-(4-(2,4-dimethoxybenzylamino)quinazolin-6-yl)benzyl)-1,3-dimethyl-1H-pyrazole-5-carboxamide]
54% | O=C(C1CCCCC1)N(Cc1cccc(-c2cc(F)c3ncnc(NC4CC4)c3c2)c1)C1CC1 [Example 662, N-cyclopropyl-N-(3-(4-(cyclopropylamino)-8-fluoroquinazolin-6-yl)benzyl)cyclohexane carboxamide]
89% | O=C(c1cccc(Br)n1)N(Cc1cccc(-c2ccc3ncnc(NC4CC4)c3c2)c1)C1CC1 [Example 163, 6-bromo-pyridine-2-carboxylic acid cyclopropyl-[3-(4-cyclopropylamino-quinazolin-6-yl)-benzyl]-amide]
